Measured values reported in US9206173B2, “Heterocyclic compounds for the treatment of stress-related conditions” (OTSUKA PHARMACEUTICAL CO., LTD., priority 2009, dated 2015).
Counter-ions that a name gives are not always drawn.

Biological target: human GPR10 (Homo sapiens (Human), UniProt P49683)
Assay: Inhibitory activity on binding of [3H]-PrRP to GPR10 (HEK 293 cell membrane fraction)
Settings: [3H]-PrRP 1 nM, human GPR10-expressing HEK 293 cell membrane fraction; Ki from IC50 by Cheng-Prussoff formula
Procedure: Inhibitory Activity on Binding of [^3H]-PrRP to GPR10
Human GPR10 receptor expressing human embryonic kidney cells, HEK 293 cells, were cultured in Dulbecco's Modified Eagle's medium supplemented with 10% fetal bovine serum and 1% penicilline-streptmycin at 37° C., in 5% carbon dioxide gas conditions. The medium was removed and the cells were recovered in a phosphate buffer to prepare a cell suspension. The cell suspension was homogenated on ice by an ultrasonic cell homogenizer (Microson™ type XL200) and centrifuged at 40,000 g for 10 minutes at 4° C. After the supernatant was discarded, Buffer A (20 mM HEPES, 10 mM EDTA, 1 μl/ml protease inhibiting cocktail, pH 7.4) was added to the pellet. The pellet was suspended by the ultrasonic cell homogenizer, then the suspension was centrifuged at 40,000 g, for 10 minutes at 4° C. After this operation was repeated once again, the supernatant was discarded, Buffer B (20 mM HEPES, 0.1 mM EDTA, pH 7.4) was added to the pellet, and the pellet was suspended by the ultrasonic homogenizer. This was stored at a freezer of −80° C. as a cell membrane fraction until use in a binding test.
To each well of a 96-well plate, 150 μl of assay buffer (20 mM HEPES, 10 mM EDTA, 1 μl/ml protease inhibiting agent cocktail, pH 7.4), 20 μl of cell membrane fraction, 10 μl of test compound and [^3H]-PrRP (final concentration 1 nM) were added and incubated at room temperature for 90 minutes. After completion of the reaction, using a cell harvester, the cell-membrane fraction sample product was filtered under aspiration by a glass fiber filter plate (Unifilter; GF/B) previously treated with 0.5% polyethylene imine. The filter was washed with a 50 mM Tris hydrochloric acid buffer (pH 7.4) three times. After the filter was dried in a dryer (50° C.) for about 3 hours, 40 μl of liquid scintillation cocktail (MicroScint-O) was added to each well and radio activity was measured by a scintillation counter (Packard Topcount). The radio activity in the presence of an excessive amount of non-labeled PrRP (final concentration: 100 nM) was regarded as non-specific binding.
The binding inhibition rate was calculated based on calculating formula: 100−(radio activity when a compound is added−radio activity of non-specific binding)÷(radio activity when a solvent is added−radio activity of non-specific binding)×100.
An IC50 value was calculated based on the concentration dependent reaction using a non-linear analysis program and a Ki value was calculated using Cheng-Prussoff formula.

Chain of human GPR10 (P49683 whole entry): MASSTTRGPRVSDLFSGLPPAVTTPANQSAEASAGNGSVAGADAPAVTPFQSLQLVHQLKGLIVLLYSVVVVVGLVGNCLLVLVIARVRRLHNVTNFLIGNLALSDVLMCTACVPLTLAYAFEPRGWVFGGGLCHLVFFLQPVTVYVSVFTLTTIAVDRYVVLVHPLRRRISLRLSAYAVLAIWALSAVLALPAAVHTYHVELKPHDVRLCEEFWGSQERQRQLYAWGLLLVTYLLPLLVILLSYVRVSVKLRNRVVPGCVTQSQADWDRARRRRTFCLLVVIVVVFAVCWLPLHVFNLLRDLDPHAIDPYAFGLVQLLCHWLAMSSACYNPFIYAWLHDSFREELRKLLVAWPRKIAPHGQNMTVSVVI

| Structure (SMILES) | Ki [nM] |
| --- | --- |
| C#CCCn1c(N[C@@H](C)c2ccc(C(F)(F)F)cc2)nc2c(c1=O)CN(C(=O)c1ccc(C(=O)N(C)C)cc1)CC2 [Example 2494, 4-{3-(3-butynyl)-4-oxo-2-[(S)-1-(4-trifluoromethylphenyl)ethylamino]-3,5,7,8-tetrahydro-4H-pyrido[4,3-d]pyrimidine-6-carbonyl}-N,N-dimethylbenzamide] | 201 |
| COn1c(N[C@@H](C)c2ccc(C(F)(F)F)cc2)nc2c(c1=O)CN(C(=O)c1cc3occc3n1C)CC2 [Example 2465, 3-methoxy-6-(4-methyl-4H-furo[3,2-b]pyrrole-5-carbonyl)-2-[(S)-1-(4-trifluoromethylphenyl)ethylamino]-5,6,7,8-tetrahydro-3H-pyrido[4,3-d]pyrimidin-4-one] | 10 |
| COn1c(N[C@@H](C)c2ccc(C(F)(F)F)cc2)nc2c(c1=O)CN(C(=O)c1cc3cccnc3s1)CC2 [Example 2415, 3-methoxy-6-(thieno[2,3-b]pyridine-2-carbonyl)-2-[(S)-1-(4-trifluoromethylphenyl)ethylamino]-5,6,7,8-tetrahydro-3H-pyrido[4,3-d]pyrimidin-4-one] | 9 |
| COn1c(N[C@H](c2ccc(Cl)cc2)C(C)C)nc2c(c1=O)CN(C(=O)c1cc3ccccn3n1)CC2 [Example 2483, 2-[(S)-1-(4-chlorophenyl)-2-methylpropylamino]-3-methoxy-6-(pyrazolo[1,5-a]pyridine-2-carbonyl)-5,6,7,8-tetrahydro-3H-pyrido[4,3-d]pyrimidin-4-one] | 13 |
| COn1c(N[C@H](c2ccc(Cl)cc2)C(C)C)nc2c(c1=O)CN(C(=O)c1cc3ccccc3cn1)CC2 [Example 2489, 2-[(S)-1-(4-chlorophenyl)-2-methylpropylamino]-6-(isoquinoline-3-carbonyl)-3-methoxy-5,6,7,8-tetrahydro-3H-pyrido[4,3-d]pyrimidin-4-one] | 26 |
| COn1c(N[C@@H](C)c2ccc(C(F)(F)F)cc2)nc2c(c1=O)CN(C(=O)c1ccc(Cl)o1)CC2 [Example 2454, 6-(5-chloro-furan-2-carbonyl)-3-methoxy-2-[(S)-1-(4-trifluoromethylphenyl)ethylamino]-5,6,7,8-tetrahydro-3H-pyrido[4,3-d]pyrimidin-4-one] | 48 |
| COn1c(N[C@@H](C)C2CCCCC2)nc2c(c1=O)CN(C(=O)c1ccc(Cl)cc1)CC2 [Example 2470, 6-(4-chlorobenzoyl)-2-((S)-1-cyclohexyl-ethylamino)-3-methoxy-5,6,7,8-tetrahydro-3H-pyrido[4,3-d]pyrimidin-4-one] | 108 |
| COn1c(N[C@@H](C)c2ccc(C(F)(F)F)cc2)nc2c(c1=O)CN(C(=O)c1cc3ccccc3s1)CC2 [Example 2474, 6-(benzo[b]thiophene-2-carbonyl)-3-methoxy-2-[(S)-1-(4-trifluoromethylphenyl)ethylamino]-5,6,7,8-tetrahydro-3H-pyrido[4,3-d]pyrimidin-4-one] | 15 |
| COn1c(N2CCCC2c2ccc(C(F)(F)F)cc2)nc2c(c1=O)CN(C(=O)c1ccc(Cl)cc1)CC2 (centres unmarked) [Example 2475, 6-(4-chlorobenzoyl)-3-methoxy-2-[2-(4-trifluoromethylphenyl)pyrrolidin-1-yl]-5,6,7,8-tetrahydro-3H-pyrido[4,3-d]pyrimidin-4-one] | 34 |
| COn1c(N[C@H](c2ccc(Cl)cc2)C(C)C)nc2c(c1=O)CN(C(=O)c1ccc3c(c1)CCC(=O)N3C)CC2 [Example 2487, 2-[(S)-1-(4-chlorophenyl)-2-methylpropylamino]-3-methoxy-6-(1-methyl-2-oxo-1,2,3,4-tetrahydro-quinoline-6-carbonyl)-5,6,7,8-tetrahydro-3H-pyrido[4,3-d]pyrimidin-4-one] | 24 |
| COn1c(N[C@@H](C)c2ccc(Cl)cc2)nc2c(c1=O)CN(C(=O)c1cc3cccnc3s1)CC2 [Example 2495, 2-[(S)-1-(4-chlorophenyl)ethylamino]-3-methoxy-6-(thieno[2,3-b]pyridine-2-carbonyl)-5,6,7,8-tetrahydro-3H-pyrido[4,3-d]pyrimidin-4-one hydrochloride] | 3 |
| CCOc1ccc(CNc2nc3c(c(=O)n2OC)CN(C(=O)c2ccc(C#N)cc2F)CC3)cc1 [Example 2490, 4-[2-(4-ethoxybenzylamino)-3-methoxy-4-oxo-3,5,7,8-tetrahydro-4H-pyrido[4,3-d]pyrimidine-6-carbonyl]-3-fluorobenzonitrile] | 237 |
| CC[C@H](Nc1nc2c(c(=O)n1OC)CN(C(=O)c1ccc(C#N)cc1F)CC2)c1ccc(C(F)(F)F)cc1 [Example 2482, 3-fluoro-4-{3-methoxy-4-oxo-2-[(S)-1-(4-trifluoromethylphenyl)propylamino]-3,5,7,8-tetrahydro-4H-pyrido[4,3-d]pyrimidine-6-carbonyl}benzonitrile] | 8 |
| COn1c(N[C@@H](C)C2CCCCC2)nc2c(c1=O)CN(C(=O)c1ccc(C#N)cc1F)CC2 [Example 2469, 4-[2-((S)-1-cyclohexylethylamino)-3-methoxy-4-oxo-3,5,7,8-tetrahydro-4H-pyrido[4,3-d]pyrimidine-6-carbonyl]-3-fluorobenzonitrile] | 56 |
| C#CCn1c(N[C@@H](C)c2ccc(C(F)(F)F)cc2)nc2c(c1=O)CN(C(=O)c1cccc(C#N)c1)CC2 [Example 2476, 3-{4-oxo-3-(2-propynyl)-2-[(S)-1-(4-trifluoromethylphenyl)ethylamino]-3,5,7,8-tetrahydro-4H-pyrido[4,3-d]pyrimidine-6-carbonyl}benzonitrile] | 9 |
| COn1c(N[C@@H](C)c2ccc(C(F)(F)F)cc2)nc2c(c1=O)CN(C(=O)c1ccc(C)c(F)c1)CC2 [Example 2457, 6-(3-fluoro-4-methylbenzoyl)-3-methoxy-2-[(S)-1-(4-trifluoromethylphenyl)ethylamino]-5,6,7,8-tetrahydro-3H-pyrido[4,3-d]pyrimidin-4-one] | 8 |
| COn1c(N[C@@H](C)c2ccc(C(F)(F)F)cc2)nc2c(c1=O)CN(C(=O)c1cc(-c3cccs3)n(C)n1)CC2 [Example 2464, 3-methoxy-6-(1-methyl-5-thiophen-2-yl-1H-pyrazole-3-carbonyl)-2-[(S)-1-(4-trifluoromethylphenyl)ethylamino]-5,6,7,8-tetrahydro-3H-pyrido[4,3-d]pyrimidin-4-one] | 20 |
| COn1c(N[C@H](c2ccc(Cl)cc2)C(C)C)nc2c(c1=O)CN(C(=O)c1ccc(-n3ccnc3)cc1)CC2 [Example 2481, 2-[(S)-1-(4-chlorophenyl)-2-methylpropylamino]-6-(4-imidazol-1-ylbenzoyl)-3-methoxy-5,6,7,8-tetrahydro-3H-pyrido[4,3-d]pyrimidin-4-one] | 31 |
| COn1c(N[C@@H](C)c2ccc(C(F)(F)F)cc2)nc2c(c1=O)CN(C(=O)c1ccc3c(c1)OCCO3)CC2 [Example 2459, 6-(2,3-dihydrobenzo[1,4]dioxine-6-carbonyl)-3-methoxy-2-[(S)-1-(4-trifluoromethylphenyl)ethylamino]-5,6,7,8-tetrahydro-3H-pyrido[4,3-d]pyrimidin-4-one] | 10 |
| C[C@H](Nc1nc2c(c(=O)n1N(C)C)CN(C(=O)COc1ccc(Cl)cc1)CC2)c1ccc(C(F)(F)F)cc1 [Example 2442, 6-[2-(4-chlorophenoxy)acetyl]-3-dimethylamino-2-[(S)-1-(4-trifluoromethylphenyl)ethylamino]-5,6,7,8-tetrahydro-3H-pyrido[4,3-d]pyrimidin-4-one hydrochloride] | 140 |
| CC#CCn1c(N[C@@H](C)c2ccc(C(F)(F)F)cc2)nc2c(c1=O)CN(C(=O)c1ccc(OC)cc1)CC2 [Example 2448, 3-(2-butynyl)-6-(4-methoxybenzoyl)-2-[(S)-1-(4-trifluoromethylphenyl)ethylamino]-5,6,7,8-tetrahydro-3H-pyrido[4,3-d]pyrimidin-4-one] | 23 |
| COn1c(NCc2ccc(Cl)cc2)nc2c(c1=O)CN(C(=O)c1ccc(Cl)cc1)CC2 [Example 2462, 6-(4-chlorobenzoyl)-2-(4-chlorobenzylamino)-3-methoxy-5,6,7,8-tetrahydro-3H-pyrido[4,3-d]pyrimidin-4-one hydrochloride] | 98 |
| C=Cc1ccc(C(=O)N2CCc3nc(N[C@@H](C)c4ccc(C(F)(F)F)cc4)n(OC)c(=O)c3C2)cc1 [Example 2456, 3-methoxy-2-[(S)-1-(4-trifluoromethylphenyl)ethylamino]-6-(4-vinylbenzoyl)-5,6,7,8-tetrahydro-3H-pyrido[4,3-d]pyrimidin-4-one] | 6 |
